For assay [1], the system named is Escherichia coli. The assay can be described thus: Photocleavage activity against pUC18 DNA assessed as conversion supercoiled to nicked circular form relative to H2pXy-Zn complex.
Assay [2] relates to Escherichia coli. As to the kind of experiment: Photocleavage activity against pUC18 DNA assessed as increase in conversion supercoiled to nicked circular form in presence of 20% DMSO after 30 mins.
Assay [3] has as its system Escherichia coli. The assay can be described thus: Photocleavage activity against pUC18 DNA assessed as conversion supercoiled to nicked circular form relative to H2TMPyP.
Assay [4] concerns Escherichia coli. As to the kind of experiment: Photocleavage activity against pUC18 DNA assessed as conversion supercoiled to nicked circular form relative to H2pXy.
For assay [5], the system named is Escherichia coli. As to the kind of experiment: Photocleavage activity against pUC18 DNA assessed as conversion supercoiled to nicked circular form relative to H2mXy-Zn complex.

On to `C[n+]1ccc(-c2c3nc(c(-c4cc[n+](C)cc4)c4ccc([nH]4)c(-c4cc[n+](C)cc4)c4nc(c(-c5ccc(C(=O)NCc6ccc(CNC(=O)c7ccc(-c8c9nc(c(-c%10cc[n+](C)cc%10)c%10ccc([nH]%10)c(-c%10cc[n+](C)cc%10)c%10nc(c(-c%11cc[n+](C)cc%11)c%11ccc8[nH]%11)C=C%10)C=C9)cc7)cc6)cc5)c5ccc2[nH]5)C=C4)C=C3)cc1`, for which the Activity with Escherichia coli [1] turned out to be 26%; with Escherichia coli [2] it was 95%.
Regarding `C[n+]1ccc(-c2c3nc(c(-c4cc[n+](C)cc4)c4ccc([nH]4)c(-c4cc[n+](C)cc4)c4nc(c(-c5ccc(C(=O)NCc6cccc(CNC(=O)c7ccc(-c8c9nc(c(-c%10cc[n+](C)cc%10)c%10ccc([nH]%10)c(-c%10cc[n+](C)cc%10)c%10nc(c(-c%11cc[n+](C)cc%11)c%11ccc8[nH]%11)C=C%10)C=C9)cc7)c6)cc5)c5ccc2[nH]5)C=C4)C=C3)cc1`, the Activity in the assay on Escherichia coli [3] was 28%; in the assay with Escherichia coli [1], 6%; in the assay on Escherichia coli [4] it was 25%; in the assay on Escherichia coli [5], 12%.

(Values after ChEMBL document CHEMBL1140000, “Synthetic control of interchromophoric interaction in cationic bis-porphyrins toward efficient DNA photocleavage and singlet oxygen production in aqueous solution” (Bioorg Med Chem, 2007).)
